This note sets out measurements from US20240261294A1, “METHOD FOR TREATING IDH INHIBITOR-RESISTANT SUBJECTS” (Eli Lilly and Company, priority 2021, published 2024).

One assay concerns the target T1, IDH2 R140Q_I319M cis (Homo sapiens, UniProt P48735, I319M/R140Q).
T1 construct: expressed in transfected cells; host or cells: U-87 MG
T1 sequence (P48735 40-452 R140Q/I319M): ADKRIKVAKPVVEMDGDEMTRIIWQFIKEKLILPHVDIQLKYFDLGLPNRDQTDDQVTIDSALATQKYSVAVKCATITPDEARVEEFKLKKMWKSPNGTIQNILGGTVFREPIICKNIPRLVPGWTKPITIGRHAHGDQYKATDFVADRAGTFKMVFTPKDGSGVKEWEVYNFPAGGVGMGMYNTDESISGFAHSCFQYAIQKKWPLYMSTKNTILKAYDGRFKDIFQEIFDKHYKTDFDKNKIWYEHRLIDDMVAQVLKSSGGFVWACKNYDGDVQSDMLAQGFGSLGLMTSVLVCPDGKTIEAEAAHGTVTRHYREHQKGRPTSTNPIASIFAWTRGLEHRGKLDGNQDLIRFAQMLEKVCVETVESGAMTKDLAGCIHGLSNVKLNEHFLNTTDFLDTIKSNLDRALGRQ
In words: Inhibition of 2-HG production in IDH2 mutant U-87 MG cells. The class given is cell-based. The procedure:
(§1) Compounds and Formulation. Compound A may be synthesized as described in WO/18/111707. Compound A is prepared as a 20 mM stock in 100% DMSO (dimethyl sulfoxide) (Sigma, D2438) and diluted serially in 100% DMSO to achieve the desired concentrations. DMSO preparations are further diluted with cell culture media prior to addition in the assay.
(§2) Cell lines. U-87 MG cells (ATCC, HTB-14) are cultured and assayed in MEM (Gibco, 11095) with 2 mM GlutaMAX (Gibco, 35050), 1 mM Pyruvate (Gibco, 11360), 0.1 mM NEAA ((Non-essential amino acid) Gibco, 11140) and 10% dialyzed FBS (Fetal bovine serum) (Gibco, 26400).
(§3) Cell-based inhibition assays. Cell-based assays are performed by measuring 2-HG in U-87 MG cells in which IDH2 mutations are expressed.
(§4) DNA constructs encoding IDH2 mutations are introduced into U-87 MG cells using transfection (Promega FuGENE HD, E2311) or lentiviral transduction, and the IDH2-mutant expressing cell lines are selected using blasticidin (5 μg/ml) or puromycin (1 μg/ml). Second site mutations (Q316E, I319M, P167R, and G260A) are evaluated in cis (same monomer as driver mutation within dimer) or in trans (opposite monomer from driver mutation in dimer). For compound treatments, 12,500 or 50,000 cells per well in culture medium (150 μl or 100 μl, respectively) are plated in 96 well cell culture plates (Falcon, 353377) 2 hrs prior to treatment. Cells are treated with serial dilutions of compound A in standard growth media. Plates are incubated in a mammalian cell culture incubator (humidified, 37° C., 5% CO2) for 16 or 72 hrs. Following the incubation period, the media is aspirated and cell extracts are prepared by addition of ice-cold 80% methanol/20% water (100 μL) containing liquid chromatography-mass spectrometry (LC-MS) internal standards (1 μM ^13C4 α-KG and ^13C5 2-HG) per well for ion pairing LC-MS method. 96-well sample plates are then sealed, shaken at 450 rpm for 10 min, and then placed at −20° C. and stored until LC-MS analysis.
(§5) LC-MS metabolite analysis of conditioned media and cell lysates. The effect of inhibitors on the concentrations of 2-HG are determined by LC-MS analysis of cell lysates using an ion-pairing method as described below.
(§6) Calibration curves are prepared by spiking 2-HG and α-KG into 80% methanol/20% water containing LC-MS internal standards (1 μM ^13C4 α-KG and 1 μM ^13C5 2-HG). The quantitation of 2-HG and α-KG is accomplished using an AB Sciex 6500 mass spectrometer with an Electrospray Ionization (ESI) probe and interfaced with an Ultra Performance Liquid Chromatography (UHPLC) system in the negative multiple-reaction monitoring (MRM) mode. The UHPLC system consists of an Agilent 1290 binary pump, thermostatted column compartment (TCC), and sampler. The injection volume is 1 μL for cell culture extracts. The extracts are chromatographically resolved using a Hypercarb column, 2.1×20 mm, […] Javelin HTS (Thermo Scientific, PN: 35005-022135). Mobile phase A is water/10 mM tributylamine/15 mM acetic acid. Mobile phase B is acetonitrile/20 mM tributylamine/30 mM acetic acid. The solvent flow rate is 1.0 mL/min. The isocratic condition is kept at 26% mobile phase B. The valve, sample loop, and needle are washed with 50% acetonitrile: 50% methanol for 20 seconds. The column temperature is kept at 55° C. Calibration curves are calculated by least-square linear regression with 1/x weighting. 2-HG and α-KG are quantified using standard curve and ratio of the peak area of analytes to internal standard. Data analysis is performed using MultiQuant 3.0 (AB Sciex). The raw data are exported to Microsoft Excel spreadsheets.
(§7) Determination of IC50 Curves. IC50 curves for each compound are obtained using four parameter data fitting analysis in GraphPad/Prism software.

The target in another assay is T2, IDH2 R140Q_Q316E cis (Homo sapiens, UniProt P48735, Q316E/R140Q).
T2 construct: expressed in transfected cells; host or cells: U-87 MG
T2 sequence (P48735 40-452 R140Q/Q316E): T1 sequence (P48735 40-452 R140Q/I319M) with Q277E, M280I
The assay is described as above. In kind it is cell-based. The procedure:
as §1, §2, §3, §4, §5, §6, §7

The mark [1] stands for this setting: 16 hours incubation, 50K cells/well, 100 μl media/well, read-out: Relative IC50 (nM) Mean, inhibition of 2-HG production.
The mark [2] stands for this setting: 72 hours incubation, 12.5K cells/well, 150 μl media/well, read-out: IC50, inhibition of 2-HG production.

Changes are numbered by the printed parent chain. Read-outs that look alike come from different tables or passages of the source.

For `C=CC(=O)N1CCN([C@@H](CC2CC2)c2ccc([C@H](C)Nc3ncc4c(n3)N(CC)C(=O)OC4)cc2)CC1` [Compound A, 7-[[(1S)-1-[4-[(1S)-2-cyclopropyl-1-(4-prop-2-enoylpiperazin-1-yl)ethyl]phenyl]ethyl]amino]-1-ethyl-4H-pyrimido[4,5-d][1,3]oxazin-2-one], the half-inhibitory concentration (IC50) was 29 nM at IDH2 R140Q_I319M cis (setting [1]), 30.4 nM at IDH2 R140Q_I319M cis (setting [2]), 16 nM at IDH2 R140Q_Q316E cis (setting [1]) and 22 nM at IDH2 R140Q_Q316E cis (setting [2]).
